Experimental data reported in article PMC6901910, “Molecular Basis of C-30 Product Regioselectivity of Legume Oxidases Involved in High-Value Triterpenoid Biosynthesis” (Frontiers in Plant Science, 2019).

What was measured:
Experiment in all cases: in vivo yeast assay, GC-MS of products
TpCYP72A699 = molecular target: T1, TpCYP72A699 (Trifolium pratense, UniProt A0A5P8TXT7); type: cell-based; details: beta-amyrin formed in the cell by co-expressed OSC1; L. japonicus CPR; 30°C, 4 days
T1 construct: gene CYP72A699; full length, expressed in S. cerevisiae INVSc1 with Lotus japonicus CPR and beta-amyrin synthase OSC1
T1 sequence (A0A5P8TXT7 entry or part of it): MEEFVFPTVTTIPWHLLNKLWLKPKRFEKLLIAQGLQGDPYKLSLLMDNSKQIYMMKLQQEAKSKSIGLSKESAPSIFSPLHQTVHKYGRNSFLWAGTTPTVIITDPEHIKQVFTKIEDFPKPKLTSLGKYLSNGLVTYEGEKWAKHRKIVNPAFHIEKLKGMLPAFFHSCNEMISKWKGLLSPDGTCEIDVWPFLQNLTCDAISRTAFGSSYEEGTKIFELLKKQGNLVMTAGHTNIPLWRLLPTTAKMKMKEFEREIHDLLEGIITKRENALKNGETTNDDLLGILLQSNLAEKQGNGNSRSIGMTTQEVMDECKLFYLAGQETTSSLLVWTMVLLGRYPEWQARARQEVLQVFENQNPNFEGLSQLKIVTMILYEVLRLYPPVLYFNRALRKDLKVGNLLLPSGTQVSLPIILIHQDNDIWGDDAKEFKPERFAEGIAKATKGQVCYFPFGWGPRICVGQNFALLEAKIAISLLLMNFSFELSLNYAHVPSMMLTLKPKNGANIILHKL

CYP72A66v2 = molecular target: T2, CYP72A66v2 (Medicago truncatula, UniProt A0A5P8TY60); type: cell-based; details: beta-amyrin formed in the cell by co-expressed OSC1; L. japonicus CPR; 30°C, 4 days
T2 construct: full length, expressed in S. cerevisiae INVSc1 with Lotus japonicus CPR and beta-amyrin synthase OSC1
T2 sequence (A0A5P8TY60 entry or part of it): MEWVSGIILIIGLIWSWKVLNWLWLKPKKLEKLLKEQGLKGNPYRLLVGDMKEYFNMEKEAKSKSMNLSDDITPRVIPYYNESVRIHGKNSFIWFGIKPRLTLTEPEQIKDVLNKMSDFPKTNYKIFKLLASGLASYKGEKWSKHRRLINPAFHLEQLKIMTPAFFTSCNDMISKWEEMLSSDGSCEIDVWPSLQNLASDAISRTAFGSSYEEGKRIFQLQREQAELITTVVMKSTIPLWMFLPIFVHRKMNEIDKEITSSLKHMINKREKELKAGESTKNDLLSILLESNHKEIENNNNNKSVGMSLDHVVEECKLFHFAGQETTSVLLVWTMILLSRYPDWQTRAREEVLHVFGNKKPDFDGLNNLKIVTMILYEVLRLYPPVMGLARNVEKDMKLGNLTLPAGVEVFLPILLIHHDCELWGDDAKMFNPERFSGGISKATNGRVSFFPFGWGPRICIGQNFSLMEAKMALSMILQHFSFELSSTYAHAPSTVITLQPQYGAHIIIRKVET

CYP72A63 [1] = molecular target: T3, CYP72A63 (Medicago truncatula, UniProt H1A981); type: cell-based; details: beta-amyrin formed in the cell by co-expressed OSC1; L. japonicus CPR; 30°C, 4 days
T3 construct: full length, expressed in S. cerevisiae INVSc1 with Lotus japonicus CPR and beta-amyrin synthase OSC1
T3 sequence (H1A981 1-524): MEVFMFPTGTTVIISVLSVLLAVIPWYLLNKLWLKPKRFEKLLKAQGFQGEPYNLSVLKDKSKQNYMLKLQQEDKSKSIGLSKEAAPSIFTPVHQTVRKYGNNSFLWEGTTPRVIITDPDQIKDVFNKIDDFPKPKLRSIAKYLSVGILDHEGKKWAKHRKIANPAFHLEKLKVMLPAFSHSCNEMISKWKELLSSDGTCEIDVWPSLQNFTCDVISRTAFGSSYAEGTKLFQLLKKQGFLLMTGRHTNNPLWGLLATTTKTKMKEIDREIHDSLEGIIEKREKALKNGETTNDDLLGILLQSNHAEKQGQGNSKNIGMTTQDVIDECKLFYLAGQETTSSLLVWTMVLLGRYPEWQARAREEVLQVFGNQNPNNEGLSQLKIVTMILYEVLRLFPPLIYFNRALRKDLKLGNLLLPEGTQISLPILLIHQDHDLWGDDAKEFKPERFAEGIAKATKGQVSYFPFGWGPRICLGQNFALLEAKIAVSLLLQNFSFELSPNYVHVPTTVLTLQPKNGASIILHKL

CYP72A61v2 = molecular target: T4, CYP72A61v2 (Medicago truncatula, UniProt H1A980); type: cell-based; details: beta-amyrin formed in the cell by co-expressed OSC1; L. japonicus CPR; 30°C, 4 days
T4 construct: full length, expressed in S. cerevisiae INVSc1 with Lotus japonicus CPR and beta-amyrin synthase OSC1
T4 sequence (H1A980 entry or part of it): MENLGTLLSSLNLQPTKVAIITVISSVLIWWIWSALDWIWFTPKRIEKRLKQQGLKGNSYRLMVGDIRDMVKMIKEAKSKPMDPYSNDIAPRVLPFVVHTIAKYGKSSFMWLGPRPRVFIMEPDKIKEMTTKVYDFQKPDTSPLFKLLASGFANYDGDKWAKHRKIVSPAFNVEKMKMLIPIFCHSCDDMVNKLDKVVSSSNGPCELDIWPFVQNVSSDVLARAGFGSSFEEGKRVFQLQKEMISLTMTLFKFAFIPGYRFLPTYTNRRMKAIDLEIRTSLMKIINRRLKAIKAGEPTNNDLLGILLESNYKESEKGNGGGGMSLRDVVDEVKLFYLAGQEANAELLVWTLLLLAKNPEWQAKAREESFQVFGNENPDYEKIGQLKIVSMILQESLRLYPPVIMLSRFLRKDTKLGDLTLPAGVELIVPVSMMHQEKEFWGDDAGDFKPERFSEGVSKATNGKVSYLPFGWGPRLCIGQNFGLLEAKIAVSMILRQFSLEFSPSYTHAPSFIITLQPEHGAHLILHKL

LjCYP72A697 = molecular target: T5, LjCYP72A697 (Lotus japonicus, UniProt A0A5P8TXS9); type: cell-based; details: beta-amyrin formed in the cell by co-expressed OSC1; L. japonicus CPR; 30°C, 4 days
T5 construct: gene CYP72A697; full length, expressed in S. cerevisiae INVSc1 with Lotus japonicus CPR and beta-amyrin synthase OSC1
T5 sequence (A0A5P8TXS9 entry or part of it): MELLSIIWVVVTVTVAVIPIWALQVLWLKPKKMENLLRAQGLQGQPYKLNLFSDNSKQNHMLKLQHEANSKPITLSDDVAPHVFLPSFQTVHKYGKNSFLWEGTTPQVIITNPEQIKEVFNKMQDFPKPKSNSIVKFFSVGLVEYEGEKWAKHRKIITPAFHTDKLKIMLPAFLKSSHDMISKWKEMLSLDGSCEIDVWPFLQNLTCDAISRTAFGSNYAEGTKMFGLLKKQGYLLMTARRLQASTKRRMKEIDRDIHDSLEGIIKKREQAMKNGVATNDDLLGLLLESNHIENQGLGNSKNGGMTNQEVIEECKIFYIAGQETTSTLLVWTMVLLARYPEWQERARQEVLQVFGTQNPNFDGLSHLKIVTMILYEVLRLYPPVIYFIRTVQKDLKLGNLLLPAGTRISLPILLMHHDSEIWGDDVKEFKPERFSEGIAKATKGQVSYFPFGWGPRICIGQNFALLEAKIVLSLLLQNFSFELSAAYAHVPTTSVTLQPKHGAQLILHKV

GpCYP72A154 = molecular target: T6, GpCYP72A154 (Glycyrrhiza pallidiflora, UniProt A0A5P8TXI9); type: cell-based; details: beta-amyrin formed in the cell by co-expressed OSC1; L. japonicus CPR; 30°C, 4 days
T6 construct: gene CYP72A154; full length, expressed in S. cerevisiae INVSc1 with Lotus japonicus CPR and beta-amyrin synthase OSC1
T6 sequence (A0A5P8TXI9 1-523): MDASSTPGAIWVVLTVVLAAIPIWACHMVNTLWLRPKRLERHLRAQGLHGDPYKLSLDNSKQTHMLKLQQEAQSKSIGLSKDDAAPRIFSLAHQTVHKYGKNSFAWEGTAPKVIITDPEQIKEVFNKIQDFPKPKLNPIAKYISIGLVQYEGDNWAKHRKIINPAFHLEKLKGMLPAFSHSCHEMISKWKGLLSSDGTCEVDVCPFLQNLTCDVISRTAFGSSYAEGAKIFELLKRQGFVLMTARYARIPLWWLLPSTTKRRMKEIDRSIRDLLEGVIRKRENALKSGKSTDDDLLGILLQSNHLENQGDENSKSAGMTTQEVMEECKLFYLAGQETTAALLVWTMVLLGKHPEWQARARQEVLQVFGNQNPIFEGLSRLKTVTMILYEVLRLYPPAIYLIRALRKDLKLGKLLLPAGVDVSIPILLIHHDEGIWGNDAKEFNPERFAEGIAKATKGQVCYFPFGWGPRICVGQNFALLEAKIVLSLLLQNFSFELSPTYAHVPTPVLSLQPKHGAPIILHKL

CYP72A62v2 = molecular target: T7, CYP72A62v2 (Medicago truncatula, UniProt H1A982, V149L/V398L); details: beta-amyrin formed in the cell by co-expressed OSC1; L. japonicus CPR; 30°C, 4 days; CYP72A63-based numbering
T7 construct: full length, expressed in S. cerevisiae INVSc1 with Lotus japonicus CPR and beta-amyrin synthase OSC1
T7 sequence (H1A982 entry or part of it V149L/V398L): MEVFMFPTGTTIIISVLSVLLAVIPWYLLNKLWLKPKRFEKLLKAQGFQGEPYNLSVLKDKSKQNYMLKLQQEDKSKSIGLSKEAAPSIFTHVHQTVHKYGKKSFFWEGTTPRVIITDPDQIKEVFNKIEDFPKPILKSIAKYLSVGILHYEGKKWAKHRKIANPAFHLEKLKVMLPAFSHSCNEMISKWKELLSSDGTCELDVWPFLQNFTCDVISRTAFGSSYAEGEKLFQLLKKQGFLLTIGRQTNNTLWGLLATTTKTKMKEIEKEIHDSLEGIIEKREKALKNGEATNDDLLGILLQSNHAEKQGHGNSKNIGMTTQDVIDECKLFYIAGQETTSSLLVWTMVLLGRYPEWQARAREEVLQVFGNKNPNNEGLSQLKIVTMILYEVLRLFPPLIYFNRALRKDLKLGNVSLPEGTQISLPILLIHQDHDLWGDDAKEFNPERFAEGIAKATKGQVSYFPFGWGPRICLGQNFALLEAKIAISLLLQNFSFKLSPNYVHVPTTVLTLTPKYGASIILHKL

Gmax CYP72A141 = molecular target: T8, Gmax CYP72A141 (Glycine max, UniProt A0A5P8TY68); type: cell-based; details: beta-amyrin formed in the cell by co-expressed OSC1; L. japonicus CPR; 30°C, 4 days
T8 construct: full length, expressed in S. cerevisiae INVSc1 with Lotus japonicus CPR and beta-amyrin synthase OSC1

CYP72A63 [2] = molecular target: T9, CYP72A63 (Medicago truncatula, UniProt H1A981, L149V/L398V); type: cell-based; details: beta-amyrin formed in the cell by co-expressed OSC1; L. japonicus CPR; 30°C, 4 days
T9 construct: full length, expressed in S. cerevisiae INVSc1 with Lotus japonicus CPR and beta-amyrin synthase OSC1
T9 sequence (H1A981 whole entry L149V/L398V, the tested form may be a part): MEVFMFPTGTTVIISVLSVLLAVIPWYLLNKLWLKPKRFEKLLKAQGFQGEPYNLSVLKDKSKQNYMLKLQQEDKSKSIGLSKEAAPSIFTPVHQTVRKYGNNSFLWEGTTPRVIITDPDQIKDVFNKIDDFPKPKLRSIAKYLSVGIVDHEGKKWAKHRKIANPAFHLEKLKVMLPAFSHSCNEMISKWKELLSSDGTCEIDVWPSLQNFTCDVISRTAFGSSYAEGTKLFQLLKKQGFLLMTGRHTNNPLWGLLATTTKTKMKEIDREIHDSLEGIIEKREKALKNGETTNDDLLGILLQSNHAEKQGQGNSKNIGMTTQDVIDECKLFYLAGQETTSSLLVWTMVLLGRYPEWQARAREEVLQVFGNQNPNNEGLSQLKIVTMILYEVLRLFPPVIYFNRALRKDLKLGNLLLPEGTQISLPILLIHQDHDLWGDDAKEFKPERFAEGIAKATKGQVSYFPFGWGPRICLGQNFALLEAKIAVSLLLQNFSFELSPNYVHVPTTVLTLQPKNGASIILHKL

CYP72A559 = molecular target: T10, CYP72A559 (Medicago truncatula, UniProt A0A5P8TXY6); type: cell-based; details: beta-amyrin formed in the cell by co-expressed OSC1; L. japonicus CPR; 30°C, 4 days
T10 construct: full length, expressed in S. cerevisiae INVSc1 with Lotus japonicus CPR and beta-amyrin synthase OSC1
T10 sequence (A0A5P8TXY6 1-518): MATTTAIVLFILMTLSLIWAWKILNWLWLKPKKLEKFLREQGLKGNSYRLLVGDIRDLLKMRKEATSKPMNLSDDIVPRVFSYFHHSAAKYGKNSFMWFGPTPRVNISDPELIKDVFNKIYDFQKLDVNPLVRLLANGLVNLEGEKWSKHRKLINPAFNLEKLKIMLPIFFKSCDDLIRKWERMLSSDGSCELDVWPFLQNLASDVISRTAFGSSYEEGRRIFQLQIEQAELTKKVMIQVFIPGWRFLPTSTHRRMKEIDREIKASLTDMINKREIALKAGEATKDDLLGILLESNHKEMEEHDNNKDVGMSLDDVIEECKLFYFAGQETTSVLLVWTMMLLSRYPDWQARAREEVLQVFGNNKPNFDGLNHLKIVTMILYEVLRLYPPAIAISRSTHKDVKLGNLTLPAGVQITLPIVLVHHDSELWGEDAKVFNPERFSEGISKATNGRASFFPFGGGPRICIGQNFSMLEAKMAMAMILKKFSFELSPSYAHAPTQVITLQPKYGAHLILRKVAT

CYP72A560 = molecular target: T11, CYP72A560 (Medicago truncatula, UniProt A0A5P8TXP5); type: cell-based; details: beta-amyrin formed in the cell by co-expressed OSC1; L. japonicus CPR; 30°C, 4 days
T11 construct: full length, expressed in S. cerevisiae INVSc1 with Lotus japonicus CPR and beta-amyrin synthase OSC1
T11 sequence (A0A5P8TXP5 1-518): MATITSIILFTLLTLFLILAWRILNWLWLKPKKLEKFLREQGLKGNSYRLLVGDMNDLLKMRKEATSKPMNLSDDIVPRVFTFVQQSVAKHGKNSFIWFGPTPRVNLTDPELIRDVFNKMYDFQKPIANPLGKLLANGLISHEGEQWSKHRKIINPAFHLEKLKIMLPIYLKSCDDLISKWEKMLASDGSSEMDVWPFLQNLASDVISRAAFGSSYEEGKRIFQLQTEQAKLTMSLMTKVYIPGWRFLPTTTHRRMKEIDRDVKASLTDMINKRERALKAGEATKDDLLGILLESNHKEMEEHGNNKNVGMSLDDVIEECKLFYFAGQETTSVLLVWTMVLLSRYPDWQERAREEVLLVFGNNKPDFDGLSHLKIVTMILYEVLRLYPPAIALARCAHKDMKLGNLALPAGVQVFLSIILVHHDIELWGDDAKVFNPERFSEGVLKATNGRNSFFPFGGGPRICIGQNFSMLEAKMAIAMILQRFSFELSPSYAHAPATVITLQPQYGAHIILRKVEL

GgCYP72A154 = molecular target: T12, GgCYP72A154 (Glycyrrhiza glabra, UniProt A0A5P8TXJ1); type: cell-based; details: beta-amyrin formed in the cell by co-expressed OSC1; L. japonicus CPR; 30°C, 4 days
T12 construct: gene CYP72A154; full length, expressed in S. cerevisiae INVSc1 with Lotus japonicus CPR and beta-amyrin synthase OSC1
T12 sequence (A0A5P8TXJ1 1-523): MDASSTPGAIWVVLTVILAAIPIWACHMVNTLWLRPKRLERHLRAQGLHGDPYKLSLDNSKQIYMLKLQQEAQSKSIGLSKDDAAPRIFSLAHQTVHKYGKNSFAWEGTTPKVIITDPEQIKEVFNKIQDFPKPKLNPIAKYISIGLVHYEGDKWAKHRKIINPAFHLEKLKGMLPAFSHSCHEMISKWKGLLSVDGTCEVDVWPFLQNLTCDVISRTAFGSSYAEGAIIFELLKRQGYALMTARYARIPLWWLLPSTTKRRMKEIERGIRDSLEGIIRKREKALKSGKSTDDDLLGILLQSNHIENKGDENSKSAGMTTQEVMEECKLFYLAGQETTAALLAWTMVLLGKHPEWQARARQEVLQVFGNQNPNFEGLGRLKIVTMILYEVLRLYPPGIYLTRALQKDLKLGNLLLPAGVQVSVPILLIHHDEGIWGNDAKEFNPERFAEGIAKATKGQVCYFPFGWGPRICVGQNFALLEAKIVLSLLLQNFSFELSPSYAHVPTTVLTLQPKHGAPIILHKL

GuCYP72A154 = molecular target: T13, GuCYP72A154 (Glycyrrhiza uralensis, UniProt H1A988); type: cell-based; details: beta-amyrin formed in the cell by co-expressed OSC1; L. japonicus CPR; 30°C, 4 days
T13 construct: gene CYP72A154; full length, expressed in S. cerevisiae INVSc1 with Lotus japonicus CPR and beta-amyrin synthase OSC1
T13 sequence (H1A988 whole entry): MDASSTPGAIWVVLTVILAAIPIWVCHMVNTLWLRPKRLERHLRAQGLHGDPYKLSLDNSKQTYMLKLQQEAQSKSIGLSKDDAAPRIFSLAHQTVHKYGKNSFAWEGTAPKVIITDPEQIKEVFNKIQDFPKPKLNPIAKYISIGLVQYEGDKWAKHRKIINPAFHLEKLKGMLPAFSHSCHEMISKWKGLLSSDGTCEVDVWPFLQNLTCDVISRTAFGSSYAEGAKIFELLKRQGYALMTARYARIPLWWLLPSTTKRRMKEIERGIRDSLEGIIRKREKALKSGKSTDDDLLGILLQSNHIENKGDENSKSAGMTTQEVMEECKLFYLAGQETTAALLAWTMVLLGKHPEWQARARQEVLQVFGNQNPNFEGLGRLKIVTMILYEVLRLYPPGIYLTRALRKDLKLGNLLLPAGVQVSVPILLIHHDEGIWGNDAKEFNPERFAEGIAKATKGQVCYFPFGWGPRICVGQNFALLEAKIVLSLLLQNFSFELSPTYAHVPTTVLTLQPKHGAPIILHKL

VaCYP72A694 = molecular target: T14, VaCYP72A694 (Vigna angularis, UniProt A0A5P8TXJ3); type: cell-based; details: beta-amyrin formed in the cell by co-expressed OSC1; L. japonicus CPR; 30°C, 4 days
T14 construct: gene CYP72A694; full length, expressed in S. cerevisiae INVSc1 with Lotus japonicus CPR and beta-amyrin synthase OSC1
T14 sequence (A0A5P8TXJ3 entry or part of it): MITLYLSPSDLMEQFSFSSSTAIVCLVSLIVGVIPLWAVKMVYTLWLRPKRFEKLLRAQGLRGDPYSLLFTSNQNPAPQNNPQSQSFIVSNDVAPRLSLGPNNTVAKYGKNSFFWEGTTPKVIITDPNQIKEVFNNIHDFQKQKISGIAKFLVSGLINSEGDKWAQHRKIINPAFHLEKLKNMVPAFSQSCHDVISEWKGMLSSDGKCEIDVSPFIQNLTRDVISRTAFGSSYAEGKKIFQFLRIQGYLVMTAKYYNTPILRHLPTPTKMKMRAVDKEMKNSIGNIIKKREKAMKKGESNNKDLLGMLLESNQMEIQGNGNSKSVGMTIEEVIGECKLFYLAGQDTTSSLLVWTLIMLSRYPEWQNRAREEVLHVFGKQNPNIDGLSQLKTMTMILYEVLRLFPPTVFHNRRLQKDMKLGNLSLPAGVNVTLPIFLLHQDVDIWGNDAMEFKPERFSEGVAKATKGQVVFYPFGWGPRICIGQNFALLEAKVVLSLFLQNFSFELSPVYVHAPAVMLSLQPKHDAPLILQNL

PvCYP72A302 = molecular target: T15, PvCYP72A302 (Phaseolus vulgaris, UniProt A0A5P8TXN3); type: cell-based; details: beta-amyrin formed in the cell by co-expressed OSC1; L. japonicus CPR; 30°C, 4 days
T15 construct: gene CYP72A302; full length, expressed in S. cerevisiae INVSc1 with Lotus japonicus CPR and beta-amyrin synthase OSC1

For `CC1(C)CC[C@]2(C)CC[C@]3(C)C(=CC[C@@H]4[C@@]5(C)CC[C@H](O)C(C)(C)[C@@H]5CC[C@]43C)[C@@H]2C1` [β-amyrin], the “in vivo yeast assay, GC-MS of products” value (TpCYP72A699) was “regioselectivity in the C-29 position was common among them”, the “in vivo yeast assay, GC-MS of products” value (CYP72A66v2) was “β-Amyrin C-22β oxidation activity was also detected in CYP72A66v2 (subgroup III)” and the “in vivo yeast assay, GC-MS of products” value (CYP72A63 [1]) was “CYP72A63 showed oxidation activity against β-amyrin at the C-30 position”. For the same compound, the “in vivo yeast assay, GC-MS of products” value (CYP72A61v2) was “showed oxidation activity against β-amyrin at position C-22β, producing sophoradiol”, the “in vivo yeast assay, GC-MS of products” value (LjCYP72A697) was “in vivo enzymatic assays showed that they have regioselectivity in the C-29 position” and the “in vivo yeast assay, GC-MS of products” value (GpCYP72A154) was “the non-glycyrrhizin-producing species GpCYP72A154 oxidized β-amyrin”. For the same compound, the “in vivo yeast assay, GC-MS of products” value (CYP72A62v2) was “CYP72A62v2^V149L/V398L produced only C-30 oxidized products, 30-hydroxy-β-amyrin and 11-deoxoglycyrrhetinic acid”, the “in vivo yeast assay, GC-MS of products” value (Gmax CYP72A141) was “in vivo enzymatic assays showed that they have regioselectivity in the C-29 position” and the “in vivo yeast assay, GC-MS of products” value (CYP72A63 [2]) was “CYP72A63^L149V/L398V and CYP72A63^L149V/L398I had altered product regioselectivity resembling their counterparts”. For the same compound, the “in vivo yeast assay, GC-MS of products” value (CYP72A559) was “CYP72A559 and CYP72A560 showed oxidation activity against β-amyrin at the D or E ring”, the “in vivo yeast assay, GC-MS of products” value (CYP72A560) was “CYP72A559 and CYP72A560 showed oxidation activity against β-amyrin at the D or E ring” and the “in vivo yeast assay, GC-MS of products” value (GgCYP72A154) was “GuCYP72A154 and GgCYP72A154 oxidized β-amyrin with less regioselectivity at the D or E ring”. The “in vivo yeast assay, GC-MS of products” value (GuCYP72A154) was “GuCYP72A154 and GgCYP72A154 oxidized β-amyrin with less regioselectivity at the D or E ring”, the “in vivo yeast assay, GC-MS of products” value (VaCYP72A694) was “in vivo enzymatic assays showed that they have regioselectivity in the C-29 position” and the “in vivo yeast assay, GC-MS of products” value (PvCYP72A302) was “regioselectivity in the C-29 position was common among them”.
